Assay results published in patent publication US20240374646A1, “COMPOSITION FOR INHIBITING INFLAMMATION OR AGING OF STEM CELLS, AND METHOD FOR INHIBITING INFLAMMATION OR AGING BY USING SAME” (MITOIMMUNE THERAPEUTICS INC., priority 2021, published 2024).

Legend:
Type in all cases: cell-based, human
[1] = system: TNF-α/IFN-γ-exposed hPD-MSCs; test: Oxygen consumption rate (OCR), Seahorse XFp Extracellular Flux Analyzer
Experimental: An oxygen consumption rate was measured to assess a mitochondrial metabolic state using a Seahorse XFp Extracellular Flux Analyzer (Agilent, Santa Clara, CA, USA). A total of 10,000 cells/well were seeded in Seahorse XFp cell culture miniplates and cultured with or without TNF-α, IFN-γ and the example compound for 24 hours prior to analysis. The growth medium was replaced with a Seahorse XF base medium containing 2 mM L-glutamine, 5.5 mM D-glucose, and 1 mM sodium pyruvate according to the composition of α-MEM. Cells were treated with 1 μM oligomycin, 0.5 μM FCCP, and 0.5 μM rotenone/antimycin A during the assay. The OCR was measured for 2 minutes after mixing for 3 minutes, and this process was repeated 12 times. A basal OCR was normalized according to the protein concentration determined by BCA analysis.
The OCRs of the untreated MSC control, the TNF-α/IFN-γ-exposed MSC control (TI), and the experimental group treated with the example compound in the TNF-α/IFN-γ-exposed MSC control were measured by the above method, and the results are shown in FIG. 3A.
The basal respiration, ATP production amount, proton leakage, and spare respiratory capacity (SRC) for each of the above samples are shown in FIGS. 3B to 3E.

[2] = system: NANOG; test: Real-time qPCR, NANOG stemness gene expression; conditions: TNF-α/IFN-γ-exposed MSCs (TI) treated with compound; FIG. 1B
Experimental: (§1) Human placenta-derived mesenchymal stem cells (hPD-MSCs) were harvested from inside the placental chorion, and the harvested cells were cultured in an alpha-Minimum Essential medium (Cytiva, Marlborough, MA, USA) supplemented with 10% fetal bovine serum (ThermoFisher, Waltham, MA, USA), 1% penicillin/streptomycin (ThermoFisher, Waltham, MA, USA), 25 ng/mL human fibroblast growth factor-4 (Peprotech, Rocky Hill, NJ, USA) and 1 μg/mL heparin (Merck, San Francisco, CA, USA). A total of 1×10^5 hPD-MSCs were seeded in a cell culture dish (90×20 mm) (SPL, Pocheon, Korea) and cultured at 37° C. in an incubator containing 5% CO2. The cells were subcultured every 4 days until reaching 70 to 80% confluency. Expanded cells were obtained at passage 12 or 13. During subculture, viable cells were stained with Trypan blue (Merck) and the number of cells was manually counted.
In a passage for sample extraction, hPD-MSCs were cultured for 24 hours in a medium with or without an example compound (5-[(1,1-dioxido-4-thiomorpholinyl)methyl]-2-phenyl-N-(tetrahydro-2H-pyran-4-yl)-1H-indole-7-amine) while including 2.5 ng/mL TNF-α (Peprotech) and 25 ng/mL IFN-γ (Peprotech).
In the present experiment, the expression levels of stem cell differentiation-related genes and cell cycle-related genes were analyzed by qPCR. […]

[3] = system: TNF-α/IFN-γ-exposed hPD-MSCs; test: MSC morphology: bright-field and phalloidin/Hoechst fluorescence images; conditions: hPD-MSCs with 2.5 ng/mL TNF-α and 25 ng/mL IFN-γ, 24 hours; FIG. 1A
Experimental: as §1, with “counted. […] The morphology of MSCs was confirmed by bright-field images and fluorescence microscope images, stained cells were identified by phalloidin, which specifically labels the F-actin structure, and Hoechst 33342, which labels nuclei, in the fluorescence image, and the results are shown in FIG. 1A. […]” for “counted.”

O=S1(=O)CCN(Cc2cc(NC3CCOCC3)c3[nH]c(-c4ccccc4)cc3c2)CC1 [example compound, 5-[(1,1-dioxido-4-thiomorpholinyl)methyl]-2-phenyl-N-(tetrahydro-2H-pyran-4-yl)-1H-indole-7-amine]
spare respiratory capacity (SRC) ([1]; TNF-α/IFN-γ-exposed MSC control treated with compound, FIG. 3E): almost the same value as the untreated MSC control
oxygen consumption rate (OCR) ([1]; TNF-α/IFN-γ-exposed MSCs, 24 hours, FIG. 3A): restored TNF-α/IFN-γ-exposed MSCs to quiescence
decrease of basal respiration ([1]; vs TNF-α/IFN-γ-exposed MSC control (TI), FIG. 3B): about 80 pmol/min/cell
downregulation of oxygen consumption amount for ATP production ([1]; vs TNF-α/IFN-γ-exposed MSC control (TI), FIG. 3C): about 70 pmol/min/cell
NANOG expression (relative to untreated MSC control) [2]: significantly increased to a level similar to that of the untreated MSC control
abnormal morphology and disorganized microfilaments (F-actin cytoskeletal structure) [3]: remarkably improved to levels similar to those of the untreated MSC control
